Tests used:
human α1B‐adrenoceptor [1] = biological target: T1, human α1B‐adrenoceptor (Homo sapiens, UniProt P35368); assay: ^3H‐prazosin whole‐cell radioligand binding, CHO‐α1B cells
T1 construct: expressed in transfected cells; host or cells: CHO-K1
T1 sequence (P35368 1-520): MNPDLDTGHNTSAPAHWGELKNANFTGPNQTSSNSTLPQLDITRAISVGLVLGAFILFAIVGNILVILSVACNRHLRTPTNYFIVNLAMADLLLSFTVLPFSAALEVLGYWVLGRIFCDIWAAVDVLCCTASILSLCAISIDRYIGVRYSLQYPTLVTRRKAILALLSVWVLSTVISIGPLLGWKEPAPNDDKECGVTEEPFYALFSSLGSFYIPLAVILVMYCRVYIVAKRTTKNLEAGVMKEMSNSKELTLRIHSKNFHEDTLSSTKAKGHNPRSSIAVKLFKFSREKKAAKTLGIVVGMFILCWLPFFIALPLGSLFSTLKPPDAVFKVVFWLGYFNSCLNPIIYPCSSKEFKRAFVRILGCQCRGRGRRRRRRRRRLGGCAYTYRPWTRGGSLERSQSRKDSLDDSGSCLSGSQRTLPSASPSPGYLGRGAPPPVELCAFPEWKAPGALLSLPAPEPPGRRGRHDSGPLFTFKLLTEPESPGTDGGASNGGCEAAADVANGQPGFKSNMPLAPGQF

[2] = biological target: T2, human α1D‐adrenoceptor (full length) (Homo sapiens, UniProt P25100); assay: ^3H‐prazosin whole‐cell radioligand binding, CHO‐α1D cells; conditions: for Kd: CHO‐α1D cells; for Affinity selectivity ratio α1B vs α1D: higher affinity for α1D than α1B
T2 construct: human α1D‐adrenoceptor (full length) were used; expressed in transfected cells; host or cells: CHO-K1
T2 sequence (P25100 1-572): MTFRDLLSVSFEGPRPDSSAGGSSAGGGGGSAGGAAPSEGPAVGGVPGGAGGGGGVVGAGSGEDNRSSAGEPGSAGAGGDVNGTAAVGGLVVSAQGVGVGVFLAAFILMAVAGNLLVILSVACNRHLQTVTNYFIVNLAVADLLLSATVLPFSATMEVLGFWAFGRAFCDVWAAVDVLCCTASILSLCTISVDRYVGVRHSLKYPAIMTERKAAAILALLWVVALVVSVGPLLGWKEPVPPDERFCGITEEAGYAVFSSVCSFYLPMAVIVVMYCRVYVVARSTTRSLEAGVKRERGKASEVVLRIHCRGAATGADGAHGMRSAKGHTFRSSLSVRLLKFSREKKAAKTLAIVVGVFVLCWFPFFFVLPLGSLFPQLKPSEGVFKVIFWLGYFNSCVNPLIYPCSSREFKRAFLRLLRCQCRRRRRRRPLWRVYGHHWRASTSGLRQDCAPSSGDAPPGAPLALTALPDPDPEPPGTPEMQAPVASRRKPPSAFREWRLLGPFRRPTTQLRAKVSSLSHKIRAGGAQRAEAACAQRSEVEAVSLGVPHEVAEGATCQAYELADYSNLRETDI

human α1A‐adrenoceptor = biological target: T3, human α1A‐adrenoceptor (Homo sapiens, UniProt P35348); assay: Intracellular free calcium mobilization, CHO‐α1A cells; type: cell-based; conditions: CHO‐α1A cells; for Log efficacy ratio KD /EC50: binding KD and calcium EC50; for EC50: given as log EC50 (negative), read-out: Intracellular calcium release Log EC50 (converted); for Intracellular calcium release % ionomycin: maximal response as % of 10 µM ionomycin
T3 construct: expressed in transfected cells; host or cells: CHO-K1
T3 sequence (P35348 1-466): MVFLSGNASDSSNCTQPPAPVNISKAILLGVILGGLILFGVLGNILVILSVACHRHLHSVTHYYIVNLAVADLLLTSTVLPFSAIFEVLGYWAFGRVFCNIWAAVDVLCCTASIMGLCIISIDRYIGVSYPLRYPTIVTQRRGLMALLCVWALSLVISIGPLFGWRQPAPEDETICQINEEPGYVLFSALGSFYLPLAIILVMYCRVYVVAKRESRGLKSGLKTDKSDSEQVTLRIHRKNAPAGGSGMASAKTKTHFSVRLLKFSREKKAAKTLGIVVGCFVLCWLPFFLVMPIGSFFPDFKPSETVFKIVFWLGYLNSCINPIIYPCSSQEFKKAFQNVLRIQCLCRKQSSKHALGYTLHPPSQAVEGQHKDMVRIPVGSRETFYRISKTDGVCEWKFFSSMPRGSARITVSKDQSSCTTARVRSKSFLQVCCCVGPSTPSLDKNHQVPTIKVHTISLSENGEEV

human α1B‐adrenoceptor [3] = biological target: T1, human α1B‐adrenoceptor; assay: Intracellular free calcium mobilization, CHO‐α1B cells; type: cell-based; conditions: for EC50: given as log EC50 (negative numbers), read-out: Intracellular calcium release Log EC50 (converted); for Log efficacy ratio KD /EC50: intrinsic efficacy ratio, KD from binding / EC50 calcium; for Intracellular calcium release % ionomycin: maximal response as % of 10 µM ionomycin response
[4] = biological target: T2, human α1D‐adrenoceptor (full length); assay: Intracellular free calcium mobilization, CHO‐α1D cells; type: cell-based; conditions: CHO‐α1D cells; for Log efficacy ratio KD /EC50: intrinsic efficacy ratio, binding KD / calcium EC50; for EC50: read-out: Intracellular calcium release Log EC50 (converted); for Intracellular calcium release % ionomycin: maximal response as % of 10 µM ionomycin
human α1B‐adrenoceptor [5] = biological target: T1, human α1B‐adrenoceptor; assay: ERK1/2‐phosphorylation (Surefire Alphascreen), CHO‐α1B cells; type: cell-based; conditions: for EC50 / ERK1/2‐phosphorylation % PDBu: for bi‐phasic responses the initial stimulatory part; for EC50: read-out: ERK1/2‐phosphorylation Log EC50 (converted); for ERK1/2‐phosphorylation % PDBu: maximal response as % PDBu response
[6] = biological target: T2, human α1D‐adrenoceptor (full length); assay: ERK1/2‐phosphorylation (Surefire Alphascreen), CHO‐α1D cells; type: cell-based; conditions: CHO‐α1D cells; for EC50: log values given negative, read-out: ERK1/2‐phosphorylation Log EC50 (converted); for ERK1/2‐phosphorylation % PDBu: maximal response as % of PDBu
[7] = tested on: parental CHO cell line without any transfected receptors; assay: ERK1/2‐phosphorylation, parent CHO cells without transfected receptors; type: cell-based, Chinese hamster
human α1B‐adrenoceptor [8] = biological target: T1, human α1B‐adrenoceptor; assay: ^3H‐cAMP accumulation, CHO‐α1B cells; type: cell-based; conditions: CHO‐α1B cells; for cAMP accumulation % forskolin: % forskolin maximum response
[9] = biological target: T2, human α1D‐adrenoceptor (full length); assay: ^3H‐cAMP accumulation, CHO‐α1D cells; type: cell-based; conditions: cAMP accumulation without forskolin
human α1B‐adrenoceptor [10] = biological target: T1, human α1B‐adrenoceptor; assay: ^3H‐cAMP accumulation in the presence of 10 μM forskolin, CHO‐α1B cells; type: cell-based; conditions: CHO‐α1B cells; for cAMP accumulation (in presence of forskolin) Fold increase: fold increase of the forskolin response; for EC50: in presence of forskolin, read-out: cAMP accumulation (in presence of forskolin) Log EC50 (converted)
[11] = biological target: T2, human α1D‐adrenoceptor (full length); assay: ^3H‐cAMP accumulation in the presence of 10 μM forskolin, CHO‐α1D cells; type: cell-based; conditions: CHO‐α1D cells; for cAMP (in presence of forskolin) Fold increase: fold increase of the forskolin response
[12] = tested on: parental CHO cell line without any transfected receptors; assay: Forskolin‐stimulated cAMP accumulation, parent CHO cells without transfected receptors; type: cell-based, Chinese hamster; conditions: CHO cells without transfected receptors
[13] = 3H‐prazosin binding Log KD, whole‐cell binding (from Table 1), log values given negative
[14] = given as log KD (negative), mean ± SEM, 'early plateau' = specific binding not fully inhibited
[15] = in presence of forskolin, log values given negative

| Structure (SMILES) | Kd [2, 13] [µM] | Kd [2, 14] [µM] | Log efficacy ratio KD /EC50 (human α1A‐adrenoceptor) | EC50 (human α1A‐adrenoceptor) [µM] | Intracellular calcium release % ionomycin (human α1A‐adrenoceptor) [%] | Log efficacy ratio KD /EC50 [4] | EC50 ([4]; log values given negative) [µM] | Intracellular calcium release % ionomycin [4] [%] | EC50 [6] [µM] | ERK1/2‐phosphorylation % PDBu [6] [%] | cAMP accumulation % forskolin (human α1B‐adrenoceptor [8]) | cAMP Log EC50 [9] | cAMP accumulation (in presence of forskolin) Fold increase (human α1B‐adrenoceptor [10]) [fold] | EC50 (human α1B‐adrenoceptor [10]) [µM] | cAMP (in presence of forskolin) Fold increase [11] | EC50 [11, 15] [µM] | cAMP accumulation (in presence of forskolin) Log EC50 [12] | Affinity selectivity ratio α1B vs α1D [2] [fold] | EC50 (human α1B‐adrenoceptor [3]; CHO‐α1B cells) [µM] | Log efficacy ratio KD /EC50 (human α1B‐adrenoceptor [3]; CHO‐α1B cells) | other results |
| --- | --- | --- | --- | --- | --- | --- | --- | --- | --- | --- | --- | --- | --- | --- | --- | --- | --- | --- | --- | --- | --- |
| CC(CCc1ccc(O)cc1)NCCc1ccc(O)c(O)c1 (stereo not drawn) [Dobutamine] | 4.37 | 4.37 | 2.04 | 0.00417 | 31.3 ± 3.6 | 2.26 | 0.024 | 10.6 ± 1.8 | 0.891 | 26.2 ± 7.5 | No response | No response | 1.24 ± 0.04 | 2 | 1.16 ± 0.06 | 0.309 | No response |  |  |  | Kd (human α1B‐adrenoceptor [1]; Log KD α1B, ^3H‐prazosin whole cell binding, CHO‐α1B cells, given as log KD (negative), mean ± SEM): 3.63 µM; Kd (human α1B‐adrenoceptor [1]; Log KD, ^3H‐prazosin binding, CHO‐α1B cells, whole‐cell binding (from Table 1), given as log KD (negative numbers)): 3.63 µM; Affinity selectivity ratio α1B vs α1D (human α1B‐adrenoceptor [1]; left sub‐column: higher affinity for α1B than α1D): 1.2 fold; Agonist (calcium) response in CHO‐α1B cells (human α1B‐adrenoceptor [3]): did not stimulate any measurable; Intracellular calcium release % Ionomycin at 100 µM (human α1B‐adrenoceptor [3]; CHO‐α1B cells, response at 100 µM ligand (no EC50 given), % of ionomycin response): 3.0 ± 1.1%; ERK1/2‐phosphorylation response in CHO‐α1B cells (human α1B‐adrenoceptor [5]): did not stimulate any measurable; ERK1/2‐phosphorylation % PDBu at 100 µM (human α1B‐adrenoceptor [5]; CHO‐α1B cells, response at 100 µM ligand (no EC50 given)): 56.3 ± 11.3%; ERK1/2-phosphorylation % PDBu at 10μM ([7]; CHO cells without transfected receptors, response at 10μM only, EC50 not obtainable, % of PDBu (10μM)): 16.4 ± 5.9%; cAMP accumulation Log EC50 (human α1B‐adrenoceptor [8]): No response |
| c1ccc(C2CC2)c(OCC2=NCCN2)c1 [Cirazoline] |  | 2.95 | 3.01 | 0.000661 | 58.2 ± 2.0 | 1.37 |  | 17.3 ± 3.8 | 3.8 | 36.5 ± 3.2 | 11.4 ± 2.4% | No response | 2.09 ± 0.13 | 0.0398 | No response |  |  | 2.7 | 0.00891 | 2.95 | Kd (human α1B‐adrenoceptor [1]; CHO‐α1B cells, given as log KD (negative), mean ± SEM): 7.94 µM; Intracellular calcium release % ionomycin (human α1B‐adrenoceptor [3]; CHO‐α1B cells): 53.3 ± 1.5%; Intracellular calcium release Log EC50 ([4]; log values given negative): −6.90 ± 0.09; EC50 (human α1B‐adrenoceptor [5]; CHO‐α1B cells): 0.12 µM; ERK1/2‐phosphorylation % PDBu (human α1B‐adrenoceptor [5]; CHO‐α1B cells): 82.5 ± 8.6%; Emax at 100 µM ([7]; Cricetulus griseus, CHO, read-out: ERK1/2-phosphorylation % PDBu at 100μM): 33.4 ± 7.6%; EC50 (human α1B‐adrenoceptor [8]; read-out: cAMP accumulation Log EC50 (converted)): 0.12 µM; cAMP (in presence of forskolin) Log EC50 [11, 15]: No response; cAMP accumulation (in presence of forskolin) % forskolin-stim cAMP at 100μM ([12]; response at 100μM only, EC50 not obtainable, % of forskolin-stimulated cAMP): 82.4 ± 2.8% |
| C[C@H](N)[C@H](O)c1cccc(O)c1 [Metaraminol] | 56.2 | 56.2 | 3.14 | 0.0617 | 66.9 ± 3.2 | 1.87 | 0.759 | 23.1 ± 3.8 | 2.69 | 20.5 ± 3.0 |  | No response | 2.58 ± 0.07 | 1.48 | 1.19 ± 0.04 | 0.324 | No response | >17.8 | 0.112 | >3.95 | IC50 (human α1B‐adrenoceptor [1]; CHO‐α1B cells, printed as IC50> log value): > 1000 µM; Affinity selectivity ratio α1A vs α1D ([2]; higher affinity for α1D than α1A): 1.5 fold; Intracellular calcium release % ionomycin (human α1B‐adrenoceptor [3]; CHO‐α1B cells): 60.1 ± 3.1%; EC50 (human α1B‐adrenoceptor [5]; CHO‐α1B cells): 1.45 µM; ERK1/2‐phosphorylation % PDBu (human α1B‐adrenoceptor [5]; CHO‐α1B cells): 92.2 ± 3.9%; ERK1/2-phosphorylation % PDBu ([7]; CHO cells without transfected receptors, maximal response as % of PDBu (10μM) response, mean ± s.e.m.): No response; ERK1/2-phosphorylation Log EC50 ([7]; CHO cells without transfected receptors, mean ± s.e.m.): No response; cAMP accumulation % forskolin at 100 µM (human α1B‐adrenoceptor [8]; response at 100 µM ligand (no EC50 given)): 42.0 ± 5.1% |

Reference: article PMC8343220, “The selectivity of α‐adrenoceptor agonists for the human α1A, α1B, and α1D‐adrenoceptors” (Pharmacology Research & Perspectives, 2021)
